Results on 4 compounds are retold here after patent US7928078B2, “Conjugates of immune cell specific macrolide compounds with anti-inflammatory compounds for improved cellular targeting of anti-inflammatory therapy” (GlaxoSmithKline Istrazivacki Centar Zagreb D.O.O., priority 2001, dated 2011).

Data set [1] relates to mouse T-cell hybridoma 13. The experiment in a line: Assay of inhibition of mouse T-cell hybridoma 13 proliferation as a result of apoptose induction. The class given is cell-based. Conditions: [3H] thymidine incorporation. How it is done: Assay of Inhibition of Mouse T-Cell Hybridoma 13 Proliferation as a Result of Apoptose Induction
In a 96-well plate triplicates of test steroid dilution in RPMI medium (Immunoloski zavod) with […] were performed. To the solutions of compounds 20 000 cells per well were added and incubated overnight at 37° C. in an atmosphere with 5% CO2, then 1 μCi of [^3H] thymidine (Pharmacia) was added and it was incubated for additional 3 hours. The cells were harvested by sucking over GF/C filter (Packard). Onto each well 30 μl of Microscynt O scintillation liquid (Packard) were added and the incorporated radioactivity was measured on a β-scintillation counter (Packard). The specifity of apoptose induction by glucocorticoids was proven by antagonising the proliferation inhibition with mifepristone (Sigma).
On the technique in general: Uptake of a labelled nucleoside into DNA is a usual measure of proliferation.

Data set [2] deals with OVA-induced lung eosinophilia. The data set is described as follows: Model of lung eosinophilia in mice. The class given is in vivo, Balb/C mice. Conditions: daily i.n. or i.p., different doses, 48 hours after OVA, t-test, p<0.05. The procedure: Model of Lung Eosinophilia in Mice
Male Balb/C mice with a body weight of 20-25 g were randomly divided into groups. They were sensibilized by an i.p. injection of ovalbumine (OVA, Sigma) on zero day and on the fourteenth day. On the twentieth day the mice were subjected to a provocative test by i.n. application of OVA (positive control or test groups) or PBS (negative control). 48 hours after i.n. application of OVA, the animals were anesthetized and the lungs were rinsed with 1 ml of PBS. The cells were separated on Cytospin 3 cytocentrifuge (Shandon). The cells were stained in Diff-Quick (Dade) and the percentage of eozinophiles was determined by differential counting of at least 100 cells.
Fluticasone and beclomethasone were used as standard substances under positive and negative control.
The compounds were administered daily i.n. or i.p. in different doses 2 days before provocative test and up to the completion of the test.

The target in data set [3] is T1, alpha isoform of human glucocorticoid receptor (Homo sapiens, UniProt P04150).
T1 construct: expressed in transfected cells; host or cells: COS-1 cells, transient transfection with pcDNA3.1 hygro(+) carrying the GR alpha cDNA
T1 sequence (P04150 1-777): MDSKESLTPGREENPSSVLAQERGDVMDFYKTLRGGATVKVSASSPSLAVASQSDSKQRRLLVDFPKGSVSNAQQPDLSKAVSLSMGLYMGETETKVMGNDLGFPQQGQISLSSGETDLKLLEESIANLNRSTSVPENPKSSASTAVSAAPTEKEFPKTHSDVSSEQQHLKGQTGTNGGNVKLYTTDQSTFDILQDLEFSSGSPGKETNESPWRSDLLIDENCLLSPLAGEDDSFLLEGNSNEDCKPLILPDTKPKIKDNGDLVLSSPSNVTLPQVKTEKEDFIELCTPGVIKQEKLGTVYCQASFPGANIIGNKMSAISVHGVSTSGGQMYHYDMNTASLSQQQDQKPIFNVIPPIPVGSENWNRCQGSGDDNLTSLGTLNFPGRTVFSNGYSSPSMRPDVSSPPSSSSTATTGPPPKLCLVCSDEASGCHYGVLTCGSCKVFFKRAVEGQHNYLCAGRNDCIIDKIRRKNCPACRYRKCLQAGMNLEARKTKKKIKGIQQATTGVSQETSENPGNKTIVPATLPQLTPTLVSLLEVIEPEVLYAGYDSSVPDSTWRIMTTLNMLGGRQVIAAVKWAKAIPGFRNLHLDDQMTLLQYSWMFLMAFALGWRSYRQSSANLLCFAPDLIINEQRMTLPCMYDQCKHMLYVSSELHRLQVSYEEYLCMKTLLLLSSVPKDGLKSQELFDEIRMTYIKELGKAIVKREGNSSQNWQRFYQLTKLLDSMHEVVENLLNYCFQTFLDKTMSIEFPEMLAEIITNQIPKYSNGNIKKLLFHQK
The data set is described as follows: Assay of binding to the human glucocorticoid receptor ([3H] dexamethasone competition in transfected COS-1 cells). Conditions: 24 nM [3H] dexamethasone. The text has this:
Assay of Binding to the Human Glucocorticoid Receptor
The gene for alpha isoform of human glucocorticoid receptor was cloned by reverse polymerase chain reaction. The total RNA was isolated from human peripheral blood lymphocites according to the instructions of the manufacturer (Qiagen), transcripted into cDNA with AMV reverse transcriptase (Roche) and the gene was multiplied by specific primers
The obtained reaction product was cloned into XhoI/BamHI site of Bluescript KS plasmid (Stratagene), subjected to sequencing by dideoxy fluorescent method with M13 and M13 rev primers (Mycrosynth) and then it was cloned into XhoI/BamHI site of pcDNA3.1 hygro(+)plasmid (Invitrogen). 1×10^5 COS-1 cells were seeded onto a 12-well plate (Falcon) in DMEM medium (Life Technologies) with 10% FBS (Biowhitaker) and cultivated up to a 70% confluence at 37° C. in an atmosphere with 5% CO2. The medium was removed and 1 μg of DNA, 7 μl of PLUS reagent and 2 μl of Lipofectamine (Life Technologies) in 500 μl DMEM were added per well. The cells were incubated at 37° C. in an atmosphere with 5% CO2 and after 5 hours the same volume of 20% FBS/DMEM was added. After 24 hours the medium was completely changed. 48 hours after the transfection, the test compounds in different concentrations and 24 nM [^3H] dexamethasone (Pharmacia) in DMEM medium were added. The cells were incubated for 90 minutes at 37° C. in an atmosphere with 5% CO2, washed three times with PBS buffer (Sigma), cooled to 4° C. (pH=7.4) and then lyzed in Tris buffer (pH=8.0) (Sigma) with 0.2% SDS (Sigma). After the addition of UltimaGold XR (Packard) scintillation liquid, the residual radioactivity was read in a Tricarb (Packard) β-scintillation counter.

Data set [4] deals with interleukin-2 production induced by the stimulation via CD3 receptor. The experiment in a line: Assay of inhibition of interleukin-2 production. The class given is cell-based, mouse. The procedure:
Assay of Inhibition of Interleukin-2 Production
Onto a 96-well plate (Nunc) 15 ng of 2C11 antibodies (Pharmingen) per well were added and left to adsorb in PBS buffer (pH=7.4) overnight at 4° C. PBS was removed, the plate was washed with RPMI medium and then 50,000 cells per well were added and incubated in the medium with and without a dilution of the test compounds. The concentration of IL-2 in the supernatant was measured by ELISA specific for mouse IL-2 (R&D Systems).

The next data set concerns CHO and COS-1 cells. The experiment in a line: Assay of steroid introduction into cells. The class given is cell-based. To be noted: 1 μM radioactive compound, 90 minutes, 37° C. How it is done: Assay of Steroid Introduction into Cells
CHO and COS-1 cells were cultivated up to confluence in 75 cm^2 flasks in Hamm F 12 medium (Life Technologies) with 10% FBS (CHO) or in DMEM medium with 10% FBS (COS-1). 1 μM of radioactive compound 10 with total 2 μCi activity was added onto the cells and it was incubated for 90 minutes at 37° C. in an atmosphere with 5% CO2. The cell supernatant was collected, the cells were lysed and then the radioactivity in the cell lysate as well as in the cell supernatant was read.

Data set [5] in a line: Influence of compounds on the thymus weight. To be noted: rats, s.c. implanted impregnated pellets, 7 days.
Excerpt: Influence of Compounds on the Thymus Weight
Male Sprague Dawley rats with a body weight of 200 g were randomly divided into groups of six animals. To anaesthetized animals sterilized weighed pellets of filter paper were implanted s.c. dorsally. The pellets in the control group were impregnated with acetone, whereas in the test groups they were impregnated either with the standard (prednisolone, Sigma) or with the compound 10. After 7 days the animals were put to sleep and their thymuses were isolated and weighed. The systemic effects were estimated by comparing the thymus weight in the test and control groups.

The compound `CC[C@H]1OC(=O)[C@H](C)[C@@H](O[C@@H]2C[C@](C)(OC)[C@H](O)C(C)O2)[C@H](C)[C@@H](O[C@@H]2O[C@H](C)C[C@@H](N(C)C)[C@H]2O)[C@](C)(O)C[C@@H](C)CN(CCCNC(=O)[C@@]2(O)CCC3C4CCC5=CC(=O)CC[C@]5(C)C4[C@@H](O)C[C@@]32C)[C@H](C)[C@@H](O)[C@]1(C)O` (stereo partly drawn) [Compound 8] yielded a melting point of 144 °C. For the same compound, in data set [1], the “inhibition of cell hybridoma 13 proliferation” value is recorded as “demonstrated an inhibition”. Also, the “number of eosinophiles in the lung rinse with regard to the positive control” value (from here on “number of eosinophiles in the lung rinse”) in data set [2] is on record as “statistically significantly (t-test, p<0.05) reduced”.
`CC[C@H]1OC(=O)[C@H](C)[C@@H](O[C@@H]2C[C@](C)(OC)[C@H](O)C(C)O2)[C@H](C)[C@@H](O[C@@H]2O[C@H](C)C[C@@H](N(C)C)[C@H]2O)[C@](C)(O)C[C@@H](C)CN(CCCNC(=O)[C@@]2(O)[C@H](C)CC3C4C[C@H](F)C5=CC(=O)C=C[C@]5(C)[C@@]4(F)[C@@H](O)C[C@@]32C)[C@H](C)[C@@H](O)[C@]1(C)O` (stereo partly drawn) [Compound 9]: the melting point stood at 169 °C. In addition, the “competition with radioactive dexamethasone in the binding site on the glucocorticoid receptor” value in data set [3] is on record as “able to compete with radioactive dexamethasone”. The “inhibition of cell hybridoma 13 proliferation” value in data set [1] was “demonstrated an inhibition”. Also, in data set [4], the “inhibition of interleukin-2 production” value is given as “demonstrate an inhibition”. In addition, the “number of eosinophiles in the lung rinse” value in data set [2] was “statistically significantly (t-test, p<0.05) reduced”.
As for `CC[C@H]1OC(=O)[C@H](C)[C@@H](O[C@@H]2C[C@](C)(OC)[C@H](O)C(C)O2)[C@H](C)[C@@H](O[C@@H]2O[C@H](C)C[C@@H](N(C)C)[C@H]2O)[C@](C)(O)C[C@@H](C)CN(CCCNC(=O)[C@@]2(O)[C@H](C)CC3C4CCC5=CC(=O)C=C[C@]5(C)[C@@]4(F)[C@@H](O)C[C@@]32C)[C@H](C)[C@@H](O)[C@]1(C)O` (stereo partly drawn) [Compound 10], the melting point fell in the range of 170 to 175 °C. The “competition with radioactive dexamethasone in the binding site on the glucocorticoid receptor” value in data set [3] is “able to compete with radioactive dexamethasone”. In addition, in the data set with CHO and COS-1 cells, the “accumulation in the cells versus cell supernatant” value was “able to accumulate in the cells in a greater concentration than in the supernatant”. Besides, in data set [1], the “inhibition of cell hybridoma 13 proliferation” value is on record as “demonstrated an inhibition”. Further, the “inhibition of interleukin-2 production” value in data set [4] is “demonstrate an inhibition”. In addition, in data set [2], the “number of eosinophiles in the lung rinse” value is recorded as “statistically significantly (t-test, p<0.05) reduced”.
Consider `C[C@]12C=CC(=O)C=C1CC[C@@H]1[C@@H]2[C@@H](O)C[C@@]2(C)[C@H]1CC[C@]2(O)C(=O)CO` [standard, prednisolone], for which the “effect on thymus weights with regard to the control” value in data set [5] is on record as “statistically significantly reduced the thymus weights”.

By melting point is commonly meant the temperature, or range, at which the solid turns liquid.
